What was measured:
[1] = test system: Italian ryegrass (Lolium multiflorum); assay: Test A preemergence, visual plant response rating; type: in vivo
In short: (§1)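 Greenhouse evaluation, approx. 10 days post-spray. Soil: loam + sand. Postemergence stage: 1–2 leaves, height 2–10 cm. Vehicle: non-phytotoxic solvent blend with surfactant. Score: visual injury on a 0 (no effect) to 100 (complete control) scale.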

[2] = test system: barnyardgrass (Echinochloa crus-galli); assay: Test A preemergence, visual plant response rating; type: in vivo
In short: as §1

[3] = test system: foxtail, giant (giant foxtail, Setaria faberii); assay: Test A preemergence, visual plant response rating; type: in vivo
In short: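 Compared with untreated controls, treated plants received a visual injury score on a 0–100 scale around 10 days after application. The compound, in a non-phytotoxic solvent with surfactant, was given as a preemergence soil spray or postemergence at the one- to two-leaf stage.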

kochia (Kochia scoparia) [4] = assay: Test A preemergence, visual plant response rating; type: in vivo
In short: as §1

[5] = test system: pigweed (Amaranthus retroflexus); assay: Test A preemergence, visual plant response rating; type: in vivo
In short: as §1

[6] = test system: Italian ryegrass (Lolium multiflorum); assay: Test A postemergence, visual plant response rating; type: in vivo
In short: as §1

[7] = test system: barnyardgrass (Echinochloa crus-galli); assay: Test A postemergence, visual plant response rating; type: in vivo
In short: as §1

[8] = test system: blackgrass (Alopecurus myosuroides); assay: Test A postemergence, visual plant response rating; type: in vivo
In short: as §1

corn (Zea mays) = assay: Test A postemergence, visual plant response rating; type: in vivo
In short: as §1

[9] = test system: foxtail, giant (giant foxtail, Setaria faberii); assay: Test A postemergence, visual plant response rating; type: in vivo
In short: as §1

[10] = test system: galium (catchweed bedstraw, Galium aparine); assay: Test A postemergence, visual plant response rating; type: in vivo
In short: as §1

kochia (Kochia scoparia) [11] = assay: Test A postemergence, visual plant response rating; type: in vivo
In short: as §1

[12] = test system: pigweed (Amaranthus retroflexus); assay: Test A postemergence, visual plant response rating; type: in vivo
In short: as §1

[13] = test system: ragweed (common ragweed, Ambrosia elatior); assay: Test A postemergence, visual plant response rating; type: in vivo
In short: as §1

[14] = test system: wheat (Triticum aestivum); assay: Test A postemergence, visual plant response rating; type: in vivo
In short: as §1

[15] = test system: barnyardgrass (Echinochloa crus-galli); assay: Test B flooded paddy test, visual plant response rating; type: in vivo; details: 250 g ai/ha, Flood, applied to paddy water, 2-leaf stage, evaluated after 13 to 15 days
In short: (§2)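 At the two-leaf stage, seedlings received compound applied to paddy water flooded 3 cm above soil, a level sustained until assessment. Greenhouse incubation lasted 13 to 15 days before visual comparison with control plants.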

[16] = test system: ducksalad (Heteranhera limosa); assay: as above; type: in vivo; details: 250 g ai/ha, Flood, applied to paddy water, 2-leaf stage, evaluated after 13 to 15 days
In short: as §2

rice (Oryza sativa) = assay: as above; type: in vivo; details: 250 g ai/ha, Flood, applied to paddy water, 2-leaf stage, evaluated after 13 to 15 days
In short: as §2

[17] = test system: sedge, umbrella (small-flower umbrella sedge, Cyperus difformis); assay: as above; type: in vivo; details: 250 g ai/ha, Flood, applied to paddy water, 2-leaf stage, evaluated after 13 to 15 days
In short: as §2

[18] = 125 g ai/ha, preemergence, 0 to 100 scale, 0 no effect, 100 complete control
[19] = 500 g ai/ha Preemergence, approx. 10 days
[20] = 500 g ai/ha, postemergence, 0 is no effect, 100 is complete control
[21] = Postemergence, 125 g ai/ha, 0 to 100 scale (0 no effect, 100 complete control)

In the case of `CO/N=C(/c1c(O)c(C)nn(C)c1=O)c1cc(Br)cc2ccccc12` [Compound 99, 4-[(E)-(3-bromo-1-naphthalenyl)(methoxyimino)methyl]-5-hydroxy-2,6-dimethyl-3(2H)-pyridazinone], the “Ryegrass, Italian plant response rating” value [1, 18] is reported as 90, the “Ryegrass, Italian plant response rating (0 to 100 scale)” value [1, 19] is reported as 100 and the “Barnyardgrass plant response rating” value [2, 18] is reported as 90. For the same compound, the “Barnyardgrass plant response rating (0 to 100 scale)” value [2, 19] was 100, the “Foxtail, Giant plant response rating” value [3, 18] was 100 and the “Foxtail, Giant plant response rating (0 to 100 scale)” value [3, 19] was 100. For the same compound, the “Kochia plant response rating” value (kochia (Kochia scoparia) [4]; [18]) was 70, the “Kochia plant response rating (0 to 100 scale)” value (kochia (Kochia scoparia) [4]; [19]) was 90 and the “Pigweed plant response rating” value [5, 18] was 90. For the same compound, the “Pigweed plant response rating (0 to 100 scale)” value [5, 19] was 100, the “Ryegrass, Italian plant response rating (0 to 100 scale)” value [6, 20] was 90 and the “Ryegrass, Italian plant response rating” value [6, 21] was 90. For the same compound, the “Barnyardgrass plant response rating (0 to 100 scale)” value [7, 20] was 90, the “Barnyardgrass plant response rating” value [7, 21] was 80 and the “Blackgrass plant response rating (0 to 100 scale)” value [8, 20] was 100. The “Blackgrass plant response rating” value [8, 21] was 90, the “Corn plant response rating (0 to 100 scale)” value (corn (Zea mays); [20]) was 60 and the “Corn plant response rating” value (corn (Zea mays); [21]) was 30. For the same compound, the “Foxtail, Giant plant response rating (0 to 100 scale)” value [9, 20] was 80, the “Foxtail, Giant plant response rating” value [9, 21] was 80 and the “Galium plant response rating (0 to 100 scale)” value [10, 20] was 100. For the same compound, the “Galium plant response rating” value [10, 21] was 90, the “Kochia plant response rating (0 to 100 scale)” value (kochia (Kochia scoparia) [11]; [20]) was 70 and the “Kochia plant response rating” value (kochia (Kochia scoparia) [11]; [21]) was 50. For the same compound, the “Pigweed plant response rating (0 to 100 scale)” value [12, 20] was 100, the “Pigweed plant response rating” value [12, 21] was 60 and the “Ragweed plant response rating (0 to 100 scale)” value [13, 20] was 90. For the same compound, the “Ragweed plant response rating” value [13, 21] was 90, the “Wheat plant response rating (0 to 100 scale)” value [14, 20] was 80 and the “Wheat plant response rating” value [14, 21] was 50. The “Plant response rating, Barnyardgrass (0 to 100 scale, 0 is no effect, 100 is complete control)” value [15] was 25, the “Plant response rating, Ducksalad (0 to 100 scale, 0 is no effect, 100 is complete control)” value [16] was 70 and the “Plant response rating, Rice (0 to 100 scale, 0 is no effect, 100 is complete control)” value (rice (Oryza sativa)) was 15. The “Plant response rating, Sedge, Umbrella (0 to 100 scale, 0 is no effect, 100 is complete control)” value [17] was 70 and the melting point was 194 to 198 °C.

From patent publication US20210045385A1, “PYRIDAZINONE-SUBSTITUTED KETOXIMES AS HERBICIDES” (FMC Corporation, priority 2018, published 2021)
